Tests used:
WT TRPV1 = biological target: T1, WT TRPV1 (Rattus norvegicus, UniProt O35433); assay: Two-electrode voltage-clamp in Xenopus oocytes, WT TRPV1; type: cell-based; settings: 100 nM RTx, +60 and -60 mV
T1 construct: expressed in transfected cells; host or cells: Xenopus oocytes (cRNA injection, pGEM-HE)
From the text: (§1) To further investigate the putative vanilloid binding pocket in TRPV1, we inspected the cryo-EM structure of TRPV1, looking for residues that are located nearby to the putative RTx density (Figure 1B; regions/residues highlighted in yellow) and that differ between TRPV1 and TRPV2 channels (Figure 3—figure supplement 1; regions highlighted in magenta). […] To quantify the contribution of each of these residues to TRPV1 channel activation by RTx under our experimental conditions, we mutated each to the corresponding residue in TRPV2. We then expressed each construct in oocytes and used the two electrode voltage-clamp technique to study activation by RTx and by the non-specific TRPV channel activator 2-APB. We recorded time courses for channel activation by each agonist while stepping the membrane potential from −60 to +60 mV every 3 s from a holding potential of 0 mV using an external recording solution containing 100 mM KCl (internal K^+ concentration in a healthy oocyte is 100 mM) (Figure 3A, left). We also recorded current-voltage (I-V) relations by stepping over a wider range of voltages in the absence and presence of activators, or in the presence of ruthenium red (RR), a non-specific inhibitor of TRP channels (Figure 3A, right).
The WT rat TRPV1 and TRPV2 channels in the pcDNA3.1 vector were kindly provided by Dr. David Julius (UCSF) ([Caterina et al., 1997]; [Caterina et al., 1999]) and subcloned into the pGEM-HE vector ([Liman et al., 1992]). Mutations were introduced into rTRPV1 using a two-step PCR mutagenesis technique and the resulting constructs were verified by sequencing. All channel constructs were expressed in Xenopus oocytes and studied following 1–4 days incubation after cRNA injection (incubated at 17°C in 96 mM NaCl, 2 mM KCl, 5 mM HEPES, 1 mM MgCl2 and 1.8 mM CaCl2, 50 μg/ml gentamycin, pH 7.6 with NaOH) using the two-electrode voltage-clamp recording technique (OC-725C, Warner Instruments, Hamden, CT) with a 150 μl recording chamber. Data were filtered at 1–3 kHz and digitized at 20 kHz using pClamp software (Molecular Devices, Sunnyvale, CA). […]

TRPV1 S512F/E570Q = biological target: T2, TRPV1 S512F/E570Q (Rattus norvegicus, UniProt O35433, E570Q/S512F); assay: Two-electrode voltage-clamp in Xenopus oocytes, TRPV1 S512F/E570Q; type: cell-based; settings: 100 nM RTx
T2 construct: expressed in transfected cells; host or cells: Xenopus oocytes (cRNA injection)
From the text: as §1, with “right). […]” for “right).”

[1] = biological target: T3, TRPV2 triple mutant that retained F472 (Rattus norvegicus, UniProt Q9WUD2, L507M/L510T/Q530E); assay: Two-electrode voltage-clamp in Xenopus oocytes, TRPV2 triple mutant retaining F472; type: cell-based; settings: 100 nM RTx, +60 mV, normalized to 4 mM 2-APB
T3 construct: expressed in transfected cells; host or cells: Xenopus oocytes (cRNA injection)
From the text: as §1, with “right). […]” for “right).”

[2] = biological target: T4, N-terminus His-tagged TRPV1 (without GFP) (Rattus norvegicus, UniProt O35433); assay: 3H-RTx binding to intact S. cerevisiae cells expressing His-tagged TRPV1; settings: 37°C, Figure 1F
T4 construct: expressed in transfected cells; host or cells: Saccharomyces cerevisiae (intact cells)
Experimental: To evaluate whether these constructs were competent to bind vanilloids, we initially measured the binding of [^3H]-RTx ([Szallasi and Blumberg, 1999]; [Szallasi et al., 1999]) to intact yeast cells expressing each of the constructs.
S. cerevisiae cells overexpressing TRPV1 constructs to be used in ligand binding assays on intact cells (Figure 1E,F) were grown as for small scale expression trials. 24 hr after protein induction cells were spun down at 4000g, the supernatant was removed and the pellet resuspended in 1x PBS, normalizing OD600 to 75 for each sample, and aliquoted for storage at -80°C. ^3H-RTx binding assays on cells were performed at 37°C as previously described ([Feng et al., 2015]), but where non-specific binding of RTx was measured using cells expressing GFP alone. The binding of RTx to TRPV1 and TRPV2 in membranes (e.g. Figure 2A,B and 5C) was performed at 37°C unless otherwise stated using membranes prepared from large scale protein preparations of S. cerevisiae containing rat TRPV1 and TRPV2 with a 1D4 tag expressed using a constitutive promoter as in [Moiseenkova-Bell et al., 2008]. Data for binding of RTx to membranes was corrected for non-specific binding, determined using either excess non-radioactive ligand or heat inactivation of the protein, as previously described ([Feng et al., 2015]). […]

TRPV1 S512F = biological target: T5, TRPV1 S512F (Rattus norvegicus, UniProt O35433, S512F); assay: Two-electrode voltage-clamp in Xenopus oocytes, TRPV1 S512F; type: cell-based; settings: 100 nM RTx
T5 construct: expressed in transfected cells; host or cells: Xenopus oocytes (cRNA injection)
From the text: as §1, with “right). […]” for “right).”

TRPV2 QM = biological target: T6, TRPV2 QM (Rattus norvegicus, UniProt Q9WUD2, F472S/L507M/L510T/Q530E); assay: Single channel inside-out patch recording of TRPV2 QM in HEK293 cells; type: cell-based; settings: 100 nM RTx, patch containing a single channel, recording of approximately 8 min
T6 construct: expressed in transfected cells; host or cells: Xenopus oocytes (cRNA injection)
T6 sequence (Q9WUD2 1-761 F472S/L507M/L510T/Q530E): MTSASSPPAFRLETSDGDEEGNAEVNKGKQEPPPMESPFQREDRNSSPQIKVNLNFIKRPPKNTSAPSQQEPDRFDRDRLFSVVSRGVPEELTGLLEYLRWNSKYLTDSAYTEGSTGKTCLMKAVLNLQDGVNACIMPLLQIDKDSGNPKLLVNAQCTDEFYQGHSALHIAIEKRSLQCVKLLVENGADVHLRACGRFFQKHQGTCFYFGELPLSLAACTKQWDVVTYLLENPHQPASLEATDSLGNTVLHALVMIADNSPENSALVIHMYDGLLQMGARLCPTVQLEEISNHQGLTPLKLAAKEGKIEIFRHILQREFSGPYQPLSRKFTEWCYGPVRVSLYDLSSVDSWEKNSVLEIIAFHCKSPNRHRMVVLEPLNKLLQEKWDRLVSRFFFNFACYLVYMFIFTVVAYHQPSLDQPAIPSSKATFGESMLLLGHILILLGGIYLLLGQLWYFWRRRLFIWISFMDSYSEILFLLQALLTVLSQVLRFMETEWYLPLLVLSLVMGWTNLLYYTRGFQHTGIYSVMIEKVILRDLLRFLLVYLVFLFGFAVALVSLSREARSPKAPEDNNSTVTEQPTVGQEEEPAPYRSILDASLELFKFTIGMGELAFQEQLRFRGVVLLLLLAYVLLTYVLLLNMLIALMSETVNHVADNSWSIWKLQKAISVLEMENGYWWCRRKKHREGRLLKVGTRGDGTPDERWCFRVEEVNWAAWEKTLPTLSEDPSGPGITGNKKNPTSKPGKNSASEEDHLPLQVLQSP

T4 sequence (O35433 whole entry): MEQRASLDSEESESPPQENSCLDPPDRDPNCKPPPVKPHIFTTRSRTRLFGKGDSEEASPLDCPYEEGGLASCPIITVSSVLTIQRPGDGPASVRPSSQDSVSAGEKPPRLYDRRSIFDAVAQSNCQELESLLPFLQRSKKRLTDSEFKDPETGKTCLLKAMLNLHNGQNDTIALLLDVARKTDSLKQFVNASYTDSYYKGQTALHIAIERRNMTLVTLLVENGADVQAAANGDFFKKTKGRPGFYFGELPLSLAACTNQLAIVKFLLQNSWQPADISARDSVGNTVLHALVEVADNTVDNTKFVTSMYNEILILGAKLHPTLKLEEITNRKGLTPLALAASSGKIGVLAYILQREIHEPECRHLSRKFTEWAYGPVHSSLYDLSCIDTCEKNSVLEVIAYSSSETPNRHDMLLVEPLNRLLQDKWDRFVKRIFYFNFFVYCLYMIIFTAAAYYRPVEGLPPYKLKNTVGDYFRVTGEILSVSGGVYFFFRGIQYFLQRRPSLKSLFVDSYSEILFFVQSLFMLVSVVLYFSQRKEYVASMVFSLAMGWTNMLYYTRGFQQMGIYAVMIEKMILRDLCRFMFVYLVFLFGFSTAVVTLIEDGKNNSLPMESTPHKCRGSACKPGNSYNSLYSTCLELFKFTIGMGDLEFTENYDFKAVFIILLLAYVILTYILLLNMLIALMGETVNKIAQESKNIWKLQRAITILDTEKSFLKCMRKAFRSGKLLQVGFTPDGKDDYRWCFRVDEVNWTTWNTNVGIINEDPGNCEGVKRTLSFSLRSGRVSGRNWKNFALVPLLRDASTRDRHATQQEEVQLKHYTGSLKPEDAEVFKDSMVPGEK
T3 sequence (Q9WUD2 whole entry L507M/L510T/Q530E): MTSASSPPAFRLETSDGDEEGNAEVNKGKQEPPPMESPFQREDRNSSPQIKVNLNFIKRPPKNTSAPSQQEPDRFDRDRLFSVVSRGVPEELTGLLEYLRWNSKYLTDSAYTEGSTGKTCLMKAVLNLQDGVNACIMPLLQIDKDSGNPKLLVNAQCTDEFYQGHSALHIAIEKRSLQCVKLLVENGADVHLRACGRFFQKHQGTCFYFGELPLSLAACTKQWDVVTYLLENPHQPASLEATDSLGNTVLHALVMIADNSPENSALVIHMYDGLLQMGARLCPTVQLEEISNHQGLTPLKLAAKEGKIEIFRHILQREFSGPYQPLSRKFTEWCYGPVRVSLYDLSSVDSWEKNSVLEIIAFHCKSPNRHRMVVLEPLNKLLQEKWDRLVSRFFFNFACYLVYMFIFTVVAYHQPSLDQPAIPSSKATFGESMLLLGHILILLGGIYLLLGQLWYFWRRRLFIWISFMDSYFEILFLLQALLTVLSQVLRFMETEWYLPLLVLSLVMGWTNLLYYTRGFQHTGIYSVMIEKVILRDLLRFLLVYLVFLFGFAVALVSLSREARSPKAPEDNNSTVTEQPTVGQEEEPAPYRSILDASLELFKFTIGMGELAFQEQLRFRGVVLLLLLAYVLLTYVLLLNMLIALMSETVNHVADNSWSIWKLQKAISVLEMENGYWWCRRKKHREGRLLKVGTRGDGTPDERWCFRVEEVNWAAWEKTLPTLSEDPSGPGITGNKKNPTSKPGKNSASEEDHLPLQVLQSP
T5 sequence (O35433 whole entry S512F): as the sequence (O35433 whole entry) above, with S512F counted along it
T1 sequence (O35433 whole entry): as the sequence (O35433 whole entry) above
T2 sequence (O35433 whole entry S512F/E570Q): as the sequence (O35433 whole entry) above, with S512F, E570Q counted along it

## C=C(C)[C@]12C[C@@H](C)[C@@]34O[C@](Cc5ccccc5)(O[C@@H]1[C@@H]3C=C(COC(=O)Cc1ccc(O)c(OC)c1)C[C@]1(O)C(=O)C(C)=C[C@@H]41)O2 [RTx, resiniferatoxin]
WT TRPV1
  channel activation by RTx: effectively irreversible activation
TRPV1 S512F/E570Q
  channel activation by RTx: retained RTx sensitivity
[1]
  channel activation by RTx: insensitive to RTx
[2]
  Hill slope (nH): 0.6
[2]; read-out: Kd of 3H-RTx binding (Hill fit)
  Kd: 30 nM
TRPV1 S512F
  dissociation of RTx after removal from the recording chamber: could readily see dissociation of RTx
TRPV2 QM
  open probability (Po): ~1
